These results are taken from ChEMBL document CHEMBL2311340, “Chemical constituents from the fruit of Gardenia jasminoides and their inhibitory effects on nitric oxide production” (Bioorg Med Chem Lett, 2013).

The test system of this test is RAW264.7. Briefly: Inhibition of nitric oxide production in lipopolysaccharide-activated mouse RAW264.7 cells by Griess reaction based method. Type of test: functional, cell-based. (Nitrite, measured by Griess reagent, commonly stands in for NO production.)
As a reminder, the IC50 is the point on the concentration scale where inhibition reaches its midpoint. Low readings indicate higher potency, high ones lower potency. Molecule `COC(=O)C1=CO[C@@H](O[C@@H]2O[C@H](CO[C@H]3O[C@H](CO)[C@@H](O)[C@H](O)[C@H]3O)[C@@H](O)[C@H](O)[C@H]2O)[C@@H]2C(CO)=CC[C@H]12` had an IC50 above 100 µM.

For the molecule `CC(/C=C/C=C(\C)C(=O)O[C@@H]1O[C@H](CO)[C@@H](O)[C@H](O)[C@H]1O)=C\C=C\C=C(C)\C=C\C=C(/C)C(=O)O[C@@H]1O[C@H](CO[C@@H]2O[C@H](CO)[C@@H](O)[C@H](O)[C@H]2O)[C@@H](O)[C@H](O)[C@H]1O`, the IC50 is above 100 µM.

For the molecule `COC(=O)C1=CO[C@@H](O[C@@H]2O[C@H](CO[C@@H]3O[C@H](COC(=O)/C=C/c4ccc(O)c(O)c4)[C@@H](O)[C@H](O)[C@H]3O)[C@@H](O)[C@H](O)[C@H]2O)[C@@H]2C(CO)=CC[C@H]12`, the IC50 was above 100 µM.

Molecule `COC(=O)C1=CO[C@@H](O[C@@H]2O[C@H](CO[C@@H]3OC[C@](O)(CO)[C@H]3O)[C@@H](O)[C@H](O)[C@H]2O)[C@@H]2C(CO)=CC[C@H]12` registered an IC50 above 100 µM.

The molecule `COC(=O)C1=CO[C@@H](O[C@@H]2O[C@H](CO[C@H]3OC[C@@H](O)[C@H](O)[C@H]3O)[C@@H](O)[C@H](O)[C@H]2O)[C@@H]2C(CO)=CC[C@H]12` returned an IC50 above 100 µM.

`COC(=O)C1=CO[C@@H](O)[C@@H]2C(CO)=C[C@@H](O)[C@H]12` displayed an IC50 of 28.7 µM.

In turn, `COC(=O)C1=CO[C@@H](O[C@@H]2O[C@H](CO[C@@H]3O[C@@H](C)[C@H](O)[C@@H](O)[C@H]3O)[C@@H](O)[C@H](O)[C@H]2O)[C@@H]2C(CO)=CC[C@H]12` came in with a concentration for half-maximal inhibition (IC50) above 100 µM.

In the case of `COC(=O)C1=CO[C@@H](O[C@@H]2O[C@H](CO)[C@@H](O)[C@H](O)[C@H]2O)[C@@H]2C(CO)=C[C@@H](O)[C@H]12`, the half-maximal inhibitory concentration (IC50) was above 100 µM.

For the molecule `CC(/C=C/C=C(\C)C(=O)O[C@@H]1O[C@H](CO[C@@H]2O[C@H](CO)[C@@H](O)[C@H](O)[C@H]2O)[C@@H](O)[C@H](O)[C@H]1O)=C\C=C\C=C(C)\C=C\C=C(/C)C(=O)O[C@@H]1O[C@H](CO[C@@H]2O[C@H](CO)[C@@H](O)[C@H](O)[C@H]2O)[C@@H](O)[C@H](O)[C@H]1O` [CROCIN], the IC50 was above 100 µM.

In turn, `COC(=O)C1=CO[C@@H](O[C@@H]2O[C@H](CO)[C@@H](O[C@@H]3O[C@H](CO)[C@@H](O)[C@H](O)[C@H]3O)[C@H](O)[C@H]2O)[C@@H]2C(CO)=CC[C@H]12` [GENAMESIDE C] returned an IC50 above 100 µM.

In the case of `COC(=O)C1=CO[C@@H](O[C@@H]2O[C@H](CO)[C@@H](O)[C@H](O)[C@H]2O)[C@@H]2C(CO[C@@H]3O[C@H](CO)[C@@H](O)[C@H](O)[C@H]3O)=CC[C@H]12` [GENAMESIDE D], the IC50 was above 100 µM.

Molecule `COC(=O)C1=CO[C@@H](O[C@@H]2O[C@H](CO[C@@H]3O[C@H](CO)[C@@H](O)[C@H](O)[C@H]3O)[C@@H](O)[C@H](O)[C@H]2O)[C@@H]2C(CO)=CC[C@H]12` [GENIPIN GENTIOBIOSIDE] gave an IC50 above 100 µM.

`COC(=O)C1=CO[C@@H](O)[C@@H]2C(CO)=CC[C@H]12` [GENIPIN] gave a half-inhibitory concentration (IC50) of 11.1 µM.

For `COC(=O)C1=CO[C@@H](O[C@@H]2O[C@H](CO)[C@@H](O)[C@H](O)[C@H]2O)[C@@H]2C(CO)=CC[C@H]12` [GENIPOSIDE], the IC50 was above 100 µM.

`CC1=C(C(=O)O[C@@H]2O[C@H](CO[C@@H]3O[C@H](CO)[C@@H](O)[C@H](O)[C@H]3O)[C@@H](O)[C@H](O)[C@H]2O)C(C)(C)CC=C1` [JASMINOSIDE R]: the IC50 was above 100 µM.

For `CC1=C(C(=O)O[C@@H]2O[C@H](CO[C@@H]3O[C@H](CO)[C@@H](O)[C@H](O)[C@H]3O)[C@@H](O)[C@H](O)[C@H]2O)C(C)(C)CCC1` [JASMINOSIDE S], the IC50 is above 100 µM.

`CC1=CC(=O)CC(C)(C)[C@H]1CO[C@@H]1O[C@H](CO[C@@H]2OC[C@](O)(CO)[C@H]2O)[C@@H](O)[C@H](O)[C@H]1O` [JASMINOSIDE T]: the concentration for half-maximal inhibition (IC50) is above 100 µM.

The molecule `CC(/C=C/C=C(\C)C(=O)O)=C\C=C\C=C(C)\C=C\C=C(/C)C(=O)O` [TRANSCROCETIN] returned an IC50 of 5.99 µM.
